“Also recorded” adds a separate entry of the source.
What was measured:
TUBO tumors [1] = test: TUBO orthotopic mammary fat pad tumors, SSI-4 monotherapy; format: in vivo, BALB/c mice
Experimental: SSI-4 mediated immunomodulation in vivo was evaluated. TUBO cells were injected orthotopically into the mammary fat pad of BALB/c mice. Animals received either sham or SSI-4 (180 mg/kg) orally (continuous) when tumor burden reached 50-100 mm^3. […] Tumor tissue was harvested 14 days after treatment onset for analysis.
As SSI-4 treatment of tumor cells enhances the antigen presenting capabilities of APCs in vitro, tumor-associated recruitment of professional phagocytes in vivo including macrophages (MP) and dendritic cells (DC) was evaluated. The ratio of tumor leukocyte recruitment by comparing the ratio of cluster of differentiation 45 antigen (CD45) positive to negative cells sorted from dissociated tumor tissue within control and SSI-4 treated mice was determined. Results indicated a 10% increase in the number of tumor-associated leukocytes within SSI-4 treated animals (FIG. 3f). Next, tumor sections were stained for F4/80, a macrophage (MP) marker. […] To determine intra-tumor dendritic cell infiltration, tumors were dissociated and analyzed via flow cytometry for DCs based on CD45^+MHCII^+CD11c^hi expression. […] As tumor-associated macrophage (TAM) cells can be correlated with either a tumor-suppressive or pro-inflammatory phenotype, we sorted this population identified by MHCII^+CD11c^loF4/80^+ based on the polarization markers interleukin-1β (IL-1β) and IL-10, comparing the expression profiles from both treatment groups as well as mammary tissue extracted from non-tumor bearing mice.
SSI-4 mediated APC activation could augment T lymphocyte infiltration and activation. […] The maturation status of T lymphocytes from CD3+ cells isolated from the spleen of treated animals by comparing the ratio of CD44 to CD62L expression in either CD4 or CD8 T-cells was examined. […] The activation status of T lymphocytes isolated from digested tumors was also assessed. […] Granzyme B-positive CD8 T-cells were also enriched in SSI-4 treated tumors (FIG. 4f), another marker for activated CD8+ T lymphocytes.

[2] = test system: 4T1 TNBC breast cancer cells; test: Tumor cell phagocytosis in vitro; format: cell-based; conditions: 4T1 cells
[3] = test system: TUBO, E0771-E2, and N202 tumor cells; test: ER stress activation in tumor cells (p-eIF2α Ser51, CHOP levels); format: cell-based, murine; conditions: SSI-4 10-1000 nM
Excerpt: (§1) SSI-4 induces ER stress in tumor cells. […] ER stress can provoke a therapeutically relevant adaptive immune response against malignant cells through the emission of immunostimulatory signals, or damage-associated molecular patterns (DAMPs) such as heat shock proteins and translocation of calreticulin (CRT) to the plasma membrane (17). In particular, phosphorylation of eIF2a has been reported to mediate CRT translocation (20) which is correlated with the induction of immunogenic cell death (ICD) and favorable disease outcome in a variety of malignancies (17).

TUBO cells [4] = test: Tumor cell phagocytosis by bone marrow-derived macrophages (BMDM) in vitro; format: cell-based, murine
Experimental: (§2) CRT behaves as a pro-phagocytic signal. The effect of SSI-4 treatment on tumor cell phagocytosis by bone marrow-derived macrophages (BMDM) in vitro was determined. SSI-4 (1000 nM) induced the highest level of phagocytosis in both TUBO and E0771-E2 cells (5 and 13%, respectively) (FIG. 2a). […] Downstream activation of T lymphocytes is dependent on the successful maturation and presentation of antigen by antigen-presenting cells such as macrophages (Woo 2015). SSI-4 driven activation of BMDMs in vitro was evaluated by measuring antigen presentation of chicken ovalbumin (cOva) by MHC class I receptors on BMDM after co-culturing them with cOva-expressing tumor cells. […] CD8+ T lymphocyte activation was evaluated in vitro using splenic T cells derived from OT-I transgenic mice which recognize ovalbumin residues 257-264 in the context of H2Kb. Proliferation and interferon gamma (IFNγ) production was measured in T lymphocytes co-cultured with both cOva-expressing tumor cells and BMDM treated with SSI-4. In addition, in order to evaluate whether the effects of SSI-4 on T lymphocyte activation were direct or mediated through a tumor-specific mechanism, concurrent analysis in SSI-4 treated T lymphocytes alone and T lymphocytes co-cultured with BMDM only was performed.

E0771-E2 cells [5] = test: as above; format: cell-based, murine
Experimental: as §2

TUBO tumors [6] = test: TUBO HER2-positive tumors, SSI-4, PD-1 blockade and combination, CD8 depletion; conditions: SSI-4 monotherapy
Experimental: Materials and methods: The checkpoint inhibitor used was a mouse anti-PD-1 that was purchased from BioXCell (catalog #BE0146). The checkpoint inhibitor was administered at 100 μg/dose (5 mg/kg) by intraperitoneal (IP) injection.
(§3) To negate the effects of PD-L1 upregulation, the combination of PD-1 antibody-mediated blockade, the receptor for PD-L1, and SSI-4, was tested.

OT-II CD4 T cells = test: OT-II CD4 T cell proliferation in co-culture; format: cell-based; conditions: for OT-II CD4 T cell proliferation: SSI-4 1000 nM
OT-I CD8 T cells = test: CD8+ T lymphocyte activation in vitro (proliferation, IFNγ) in co-culture with cOva-expressing tumor cells and BMDM; format: cell-based, mice; conditions: for interferon gamma (IFNγ) production in OT-I CD8 T cells / OT-I CD8 T cell proliferation: SSI-4 1000 nM
Experimental: as §2

E0771-E2 tumors = test: E0771-E2 tumor bearing mice, SSI-4, PD-1 blockade and combination
Experimental: The checkpoint inhibitor was administered at 100 μg/dose (5 mg/kg) by intraperitoneal (IP) injection.
as §3
Tumor-infiltrating (TI) leukocytes and lymphocytes were assessed by multicolor flow cytometry on dissociated treated tumor tissue extracted from E0771-E2 bearing mice on day 27 of the study. […] 5G: To determine whether anti-tumor activity of SSI-4/PD-1 combination therapy is dependent on cytotoxic CD8 T lymphocyte activity, CD8 depletion studies were performed in mice receiving either placebo or combination therapy.

[7] = test system: E0771 TNBC breast cancer cells; test: Tumor cell phagocytosis in vitro; format: cell-based
Experimental: as §2

[8] = test system: live tumor cells (HER2-positive and TNBC breast cancer); test: Plasma membrane translocation of calreticulin, flow cytometry on live tumor cells; format: cell-based, murine; conditions: 48 hour treatment
Experimental: Significance shown for 1000 nM dose (anova).
as §1

TUBO cells [9] = test: Antigen presentation of cOva by MHC class I on BMDM co-cultured with cOva-expressing tumor cells; format: cell-based, murine
Experimental: as §2

E0771-E2 cells [10] = test: as above; format: cell-based, murine
Experimental: as §2

[11] = splenic CD3+ cells, CD44 to CD62L
[12] = tumor tissue 14 days after treatment onset
[13] = SSI-4 treated T lymphocytes alone or T lymphocyte-BMDM co-cultures

Q: What does the source list for `CNC(=O)c1ccnc(NC(=O)N2CCC(Oc3ccccc3Cl)CC2)c1` [SSI-4, 2-{[4-(2-Chlorophenoxy)piperidine-1-carbonyl]amino}-N-methylpyridine-4-carboxamide]?
A: number of CD4+ tumor-infiltrating populations (TUBO tumors [1]; IHC of tumor sections): significant increase; number of CD8+ tumor-infiltrating populations (TUBO tumors [1]; IHC of tumor sections): significant increase; programmed death ligand-1 (PD-L1) expression in tumor (TUBO tumors [1]; IHC of tumor sections, TUBO tumor bearing mice): induces; pro-inflammatory cytokine (IL-1β) expression in tumor-associated macrophages (TUBO tumors [1]; MHCII+CD11cloF4/80+ cells): increased expression of pro-inflammatory cytokines; also recorded: significant increase in IL-1β; overall survival (TUBO tumors [1]; SSI-4 180 mg/kg orally (continuous) vs sham): appreciable increase in overall survival; tumor progression (TUBO tumors [1]; SSI-4 180 mg/kg orally (continuous) vs sham, 180 mg/kg): slower tumor progression; also recorded: tumor progression invariably occurred; tumor sizes at 30 days after onset of therapy (TUBO tumors [1]; SSI-4 180 mg/kg orally (continuous), when control animals reached endpoint): markedly smaller tumor sizes; effector CD4 and CD8 T lymphocytes identified by IFNγ (TUBO tumors [1]; T lymphocytes from digested tumors): markedly increased; increase in the number of tumor-associated leukocytes (CD45) (TUBO tumors [1]; dissociated tumor tissue, SSI-4 vs control): 10%; number of intra-tumor dendritic cells (TUBO tumors [1]; flow cytometry CD45+MHCII+CD11chi, vs control treated tumors and normal mammary tissue): significant increase; perforin in tumors (TUBO tumors [1]; mouse, in vivo): significant increase in perforin; naïve T-cell numbers (TUBO tumors [1]; spleen): concomitant decrease; memory and effector T-cells among CD4 positive T cell populations (TUBO tumors [1]; [11]): robust induction; memory and effector T-cells among CD8 positive T cell populations (TUBO tumors [1]; [11]): robust induction; intra-tumor penetration of macrophages (F4/80) (TUBO tumors [1]; tumor sections): increased intra-tumor penetration; macrophages, positive F4/80 IHC staining (TUBO tumors [1]; tumor sections): 43.3±8.6 % pop.; Ki-67 protein staining (TUBO tumors [1]; tumor sections, sham 47.7±6.4): 36.7±6.2 %+nuclei; cleaved caspase 3 (CC3) staining, H (TUBO tumors [1]; tumor sections, sham H=4.9±2.6): 10.7±3.9; cleaved caspase 3 (CC3) staining (TUBO tumors [1]; [12]): significant increase; proliferative capacity of tumors via nuclear Ki67 staining (TUBO tumors [1]; [12]): significant reduction in the proliferative capacity; Granzyme B-positive CD8 T-cells (TUBO tumors [1]; tumors): enriched; number of intra-tumor T regulatory cells (dual CD25 and FoxP3 expression) (TUBO tumors [1]; tumors): significantly reduced; also recorded: profound decrease; SSI-4 induced phagocytosis with adjuvant CRT neutralization [2]: reversed; level of phagocytosis ([2]; SSI-4 1000 nM): 12.5%; activation of ER stress (phosphorylated eIF2α at serine51 and CHOP levels) [3]: activation of ER stress; SSI-4 induced phagocytosis with adjuvant CRT neutralization (TUBO cells [4]; CRT blocking antibody): reversed; also recorded: significantly abrogate; level of phagocytosis (TUBO cells [4]; SSI-4 1000 nM): 5%; SSI-4 induced phagocytosis with adjuvant CRT neutralization (E0771-E2 cells [5]; CRT blocking antibody): reversed; also recorded: significantly abrogate; level of phagocytosis (E0771-E2 cells [5]; SSI-4 1000 nM): 13%; improved median survival compared to PD-1 monotherapy (TUBO tumors [6]): ~35%; improved median survival compared to sham (TUBO tumors [6]): approximately 37%; SSI-4 enhanced OT-II CD4 T cell proliferation with adjuvant CRT neutralization (OT-II CD4 T cells; E0771-E2): inhibited; SSI-4 enhanced OT-II CD4 T cell proliferation with adjuvant CRT neutralization (OT-II CD4 T cells; MMTV-neu): inhibited; OT-II CD4 T cell proliferation (OT-II CD4 T cells; E0771-E2): significantly enhanced; OT-II CD4 T cell proliferation (OT-II CD4 T cells; MMTV-neu): significantly enhanced; SSI-4 enhanced IFNγ production with CRT neutralization (OT-I CD8 T cells; E0771-E2 cells): mild (n.s.) decrease; SSI-4 enhanced OT-I CD8 T cell proliferation with adjuvant CRT neutralization (OT-I CD8 T cells; E0771-E2 cells): inhibited; SSI-4 enhanced IFNγ production with adjuvant CRT neutralization (OT-I CD8 T cells; MMTV-neu cells): inhibited; also recorded: abrogate; SSI-4 enhanced OT-I CD8 T cell proliferation with adjuvant CRT neutralization (OT-I CD8 T cells; MMTV-neu cells): inhibited; also recorded: abrogate; interferon gamma (IFNγ) production in OT-I CD8 T cells (OT-I CD8 T cells; triple culture with E0771-E2): significantly enhanced; also recorded: potently induce; OT-I CD8 T cell proliferation (OT-I CD8 T cells; triple culture with E0771-E2 tumor cells and macrophages): significantly enhanced; also recorded: potently induce; interferon gamma (IFNγ) production in OT-I CD8 T cells (OT-I CD8 T cells; triple culture with MMTV-neu): significantly enhanced; also recorded: potently induce; OT-I CD8 T cell proliferation (OT-I CD8 T cells; triple culture with MMTV-neu tumor cells and macrophages): significantly enhanced; also recorded: potently induce; IFNγ production without tumor cells (OT-I CD8 T cells; [13]): No significant changes; T lymphocyte proliferation without tumor cells (OT-I CD8 T cells; [13]): could not induce T cell proliferation; also recorded: No significant changes; T cell proliferation with tumor cells bearing empty vector (EV), no cOVA antigen (OT-I CD8 T cells; SSI-4 treatment): could not similarly stimulate T cell proliferation; programmed death ligand-1 (PD-L1) expression in tumor (E0771-E2 tumors; EO771-E2 tumor bearing mice): induces; protein expression of PD-L1 in tumor-infiltrating dendritic and macrophage cells (E0771-E2 tumors; FIG. 25): significant changes; improved median survival compared to PD-1 monotherapy (E0771-E2 tumors; SSI-4 monotherapy): ~20%; improved median survival compared to sham (E0771-E2 tumors; SSI-4 monotherapy): approximately 22%; effector/cytotoxic CD8+ T lymphocytes in tumor (E0771-E2 tumors; dissociated tumors): increased; also recorded: significant increase; increase of intratumor infiltration of macrophages (E0771-E2 tumors; flow cytometry, day 27): approximately 8%; protein expression of checkpoints PD-L1 or PD-L2 in dendritic cells (E0771-E2 tumors; intratumor dendritic cells): No significant changes; PD-L1 expression on macrophages (E0771-E2 tumors; intratumor macrophages): increased PD-L1; also recorded: strongly induce PD-L1 expression on macrophages; intratumor population of T regulatory cells (E0771-E2 tumors; mouse, in vivo): deleterious effect; tumor infiltrating macrophages (E0771-E2 tumors; mouse, in vivo): increased the number of tumor infiltrating macrophages; also recorded: significant influx; checkpoint protein expression (CTLA-4, TIM3) on CD4 and CD8 positive T lymphocytes (E0771-E2 tumors; tumor-infiltrating T lymphocytes): upregulation of both CTLA-4 and TIM-3; SSI-4 induced phagocytosis with adjuvant CRT neutralization [7]: reversed; level of phagocytosis ([7]; SSI-4 1000 nM): 9.4%; plasma membrane translocation/expression of calreticulin (CRT) ([8]; 10 nM, flow cytometry on live tumor cells): induces plasma membrane translocation of calreticulin; also recorded: potently upregulates plasma membrane expression of CRT; plasma membrane translocation of calreticulin ([8]; 10-1000 nM, HER2-positive and TNBC breast cancer cells, significance shown for 1000 nM): induces plasma membrane translocation of calreticulin; SSI-4 enhanced antigen presentation with adjuvant CRT neutralization (TUBO cells [9]): inhibited; antigen presentation (TUBO cells [9]; SSI-4 100 nM): 8.5%; antigen presentation (TUBO cells [9]; SSI-4 1000 nM): 8.5%; SSI-4 enhanced antigen presentation with adjuvant CRT neutralization (E0771-E2 cells [10]): inhibited; antigen presentation (E0771-E2 cells [10]; SSI-4 100 nM): 5%; antigen presentation (E0771-E2 cells [10]; SSI-4 1000 nM): 5%
